Literature values, collected in patent US20230159896A1, “MULTI-LINEAGE CARDIOVASCULAR MICROFLUIDIC ORGAN-CHIP” (CEDARS-SINAI MEDICAL CENTER, priority 2020, published 2023).
“Also recorded” adds a separate entry of the source.

How the values were obtained:
[1] = clinical, at common dose; for Cmax: read-out: Molar Cmax
[2] = for Cardiovascular side effects: patients
[3] = test system: patient-specific hiPSC-CMs
zebrafish = zebrafish model
PI3K/Akt = conditions: hiPSC-CMs, previous study

Compound	Peak plasma concentration (Cmax) [1] [ng/mL]	Cmax [1] [nM]	Cardiovascular side effects [2]	further results
COc1cc2ncnc(Nc3ccc(F)c(Cl)c3)c2cc1OCCCN1CCOCC1 [gefitinib]			typically does not exhibit cardiotoxic side effects	
CNC(=O)c1cc(Oc2ccc(NC(=O)Nc3ccc(Cl)c(C(F)(F)F)c3)c(F)c2)ccn1 [regorafenib]	2500	8080		
CNC(=O)c1cc(Oc2ccc(NC(=O)Nc3ccc(Cl)c(C(F)(F)F)c3)cc2)ccn1 [sorafenib]			cause hypertension, ischemia, and cardiac side-effects; also recorded: may cause heart failure or vascular toxicity	Survival (zebrafish): decrease survival
CCN(CC)CCNC(=O)c1c(C)[nH]c(/C=C2\C(=O)Nc3ccc(F)cc32)c1C [sunitinib]	81.9	1200	cause hypertension, ischemia, and cardiac side-effects; also recorded: may cause heart failure or vascular toxicity	Survival (zebrafish): decrease survival
insulin: Akt pathway activator				Effect of co-treatment on TKI-induced CM toxicity ([3]; co-treatment with Akt pathway activators): reversed TKI-induced CM toxicity; PI3K/Akt phosphorylation (PI3K/Akt): significantly enhanced

More lines, main results first:

Peak plasma concentration (Cmax) [1] [ng/mL]	Cmax [1] [nM]	Compound	Cardiovascular side effects [2]	further results
12.6	900	CNC(=O)c1ccccc1Sc1ccc2c(/C=C/c3ccccn3)n[nH]c2c1 [axitinib]		
660	1540	COc1cc2nccc(Oc3ccc(NC(=O)NC4CC4)c(Cl)c3)c2cc1C(N)=O [lenvatinib]		
1960	3650	Cc1ccc(Nc2nccc(N(C)c3ccc4c(C)n(C)nc4c3)n2)cc1S(N)(=O)=O [pazopanib]	may cause heart failure or vascular toxicity	
	140	Cc1ccc(C(=O)Nc2ccc(CN3CCN(C)CC3)c(C(F)(F)F)c2)cc1C#Cc1cnc2cccnn12 [ponatinib]	severe vascular toxicity	FDA black box warning ([2]; human, in vivo): arterial occlusions and venous thromboembolisms as well as hepatotoxicity; Cytotoxicity on hiPSC-CMs relative to other TKIs ([3]; previous hiPSC-CM study): most cytotoxic of all TKIs studied
960		COc1cc2c(Nc3ccc(Br)cc3F)ncnc2cc1OCC1CCN(C)CC1 [vandetanib]		hiPSC-CM contractile function ([3]; clinically-relevant concentrations, TKIs with FDA black-box warnings): contractile dysfunction
